Experimental data taken from PubChem BioAssay (NCI).
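Each compound was tested at five concentrations against cells in 96-well plates for 48 hours. Abbreviation: GI50, concentration required for 50% inhibition of growth. TGI marks complete inhibition of growth.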

How the values were obtained:
Test in all cases: growth of human tumour cells (NCI), 48 h
MDA-MB-435 = test system: MDA-MB-435
BT-549 breast = test system: BT-549 breast
OVCAR-3 ovarian = test system: OVCAR-3 ovarian
RPMI-8226 leukemia = test system: RPMI-8226 leukemia
EKVX NSCLC = test system: EKVX NSCLC
SK-MEL-28 melanoma = test system: SK-MEL-28 melanoma
M14 melanoma = test system: M14 melanoma
A498 renal = test system: A498 renal
HCC-2998 colon = test system: HCC-2998 colon
OVCAR-4 ovarian = test system: OVCAR-4 ovarian

Compound	GI50 (MDA-MB-435)	TGI (MDA-MB-435)	GI50 (BT-549 breast)	TGI (BT-549 breast)	GI50 (OVCAR-3 ovarian)	TGI (OVCAR-3 ovarian)	GI50 (RPMI-8226 leukemia)	TGI (RPMI-8226 leukemia)	GI50 (EKVX NSCLC)	TGI (EKVX NSCLC)	GI50 (SK-MEL-28 melanoma)	TGI (SK-MEL-28 melanoma)	GI50 (M14 melanoma)	TGI (M14 melanoma)	GI50 (A498 renal)	TGI (A498 renal)	GI50 (HCC-2998 colon)	TGI (HCC-2998 colon)	GI50 (OVCAR-4 ovarian)	TGI (OVCAR-4 ovarian)
COc1cnc2c(c1)C(=O)c1c-2n(CCCN2CCC(O)CC2)c(=O)c2cc(Cl)ccc12	12.9 µM	25.7 µM	9.9 µM	25.9 µM	1.4 µM	3.03 µM	0.947 µM	5.19 µM	1.84 µM	5.85 µM	16.7 µM	35.7 µM	0.0914 µM	1.86 µM	0.704 µM	21.8 µM	1.59 µM	11.1 µM	1.34 µM	3.08 µM
CN(C)c1cccc(F)c1C(=O)NC(=O)Nc1ccc(Cl)cc1		3.44 µM		> 100 µM		> 100 µM		> 36.6 µM		> 100 µM		> 100 µM		> 100 µM		> 74.8 µM		28.3 µM		> 100 µM
CC1=Nc2c([nH]c(=S)[nH]c2=O)NC(c2c(Cl)cccc2Cl)C1 (stereo not given)		2.88 µM		2.64 µM		4.16 µM		4.04 µM		18.7 µM		6.26 µM		6.47 µM		6.68 µM		22.9 µM		9.09 µM
CC(=O)/C=C/c1ccc(OCc2ccc(Cl)cc2)cc1	228 µM	> 1000 µM	136 µM	> 1000 µM	> 1000 µM	> 1000 µM	237 µM	> 1000 µM	298 µM	> 1000 µM	400 µM	> 1000 µM	559 µM	> 1000 µM	254 µM	> 1000 µM	473 µM	> 1000 µM	648 µM	> 1000 µM
O=C1N(Cc2ccccc2Cl)c2ccccc2C12NN=C(c1cccc(Cl)c1)S2 (stereo not given)	1.75 µM	3.28 µM	1.83 µM	3.44 µM	1.83 µM	3.43 µM	2.36 µM	6.04 µM	1.69 µM	3.08 µM	1.86 µM	3.57 µM	1.7 µM	3.25 µM	1.54 µM	2.95 µM	1.78 µM	3.24 µM	1.95 µM	4.05 µM
CCCCNc1ccc(Nc2ccccc2)cc1	3.29 µM	24.3 µM	2.84 µM	21.6 µM	3.79 µM	> 100 µM	1.72 µM	4.86 µM	3.53 µM	> 100 µM	10.4 µM	60.2 µM	6.3 µM	31.3 µM	11.4 µM	> 100 µM	5.73 µM	> 100 µM	4.35 µM	> 100 µM
COCCOCCOCc1n(Cc2ccc3ccccc3n2)c2ccccc2[n+]1Cc1ccc2ccccc2n1	0.387 µM	10.8 µM	0.369 µM	4.42 µM	0.479 µM	13.8 µM	0.138 µM	12.4 µM	2.55 µM	24.4 µM	0.759 µM	14.5 µM	1.56 µM	12.8 µM	2.48 µM	7.74 µM	0.912 µM	14.4 µM	0.373 µM	13.3 µM
COc1ccc(NCC(=O)Nn2c(-c3ccccc3)nc3ccccc3c2=O)cc1		> 100 µM		65.4 µM		> 100 µM		> 100 µM		> 100 µM		> 100 µM		> 100 µM		88.6 µM		> 100 µM		> 100 µM
CN1CCN(c2nc(-c3csc(-c4cccs4)n3)cc3ccccc23)CC1	1.73 µM	3.24 µM	1.82 µM	3.94 µM	1.84 µM	3.64 µM	2.09 µM	4.98 µM	1.58 µM	3.34 µM	1.77 µM	3.24 µM	1.87 µM	3.71 µM	1.47 µM	3.27 µM	1.72 µM	3.4 µM	2.18 µM	4.73 µM
